Measurements: patent US20210393932A1, “DERMAL PATCHES AND GLASS SWABS FOR APPLICATION OF TOPICAL IMMUNOSENSITIZERS” (Squarex, LLC, priority 2020, published 2021)
Where “and” joins values, the source holds several entries; their conditions need not be identical. Equal values may be shown once.

Test: Drug elution from SADBE dermal patches into pig skin (residual SADBE by HPLC)
Format: in vivo
Settings: for Percent of SADBE presumed in skin / SADBE area in kimwipe swab / SADBE area, 255 nm, 24 min. (extracted from patch) / net HPLC area of SADBE lost and presumed in skin: 2% SADBE in DMSO
Method: Squaric acid dibutyl ester (SADBE) at 2% (w/v) concentration in dimethylsulfoxide (DMSO) was added to a skin patch for dermal dosing of SADBE to test for a delayed-type hypersensitivity response or other skin irritation and to test how much SADBE disappears from the patch with different volumes and time of exposure, and is therefore presumed to enter the skin.
One purpose of this study was to determine the time course of drug elution from the dermal patches into the skin. For that purpose, patches were applied to the skin of pigs and removed 1, 3, 6, or 24 hours later, and then extracted to determine the amount of residual SADBE drug remaining in the patch. The missing SADBE from the amount originally loaded onto the patch is presumed to have transferred into the pig skin.
The skin patches consisted of a polymer backing layer similar to 3M 9916 polyester nonwoven backing layer with adhesive, 3M 9733 polyester film laminate barrier layer, and Precision Fabrics Group 0700-00010 polyester gauze layer. The gauze was heat sealed to the barrier layer. The gauze patch area was about 3 cm^2.
Patches were removed from the pigs at the indicated times and immediately the reservoir portion of the patch was cut out and placed in a 50 ml tube with 10 ml of DMSO.
Immediately after removing the patch, a kimwipe was used to swab the spot on the pig where the patch had been in order to attempt to recover any SADBE that was on the surface of the skin and had not absorbed into the skin. After wiping with the kimwipe, the kimwipe was placed in a separate 50 ml tube containing 10 ml of DMSO.
The tubes of DMSO with patches or kimwipe were transported to our laboratory, shaken at 200 rpm for 10 minutes, and then the DMSO from each tube was placed in an injection vial and analyzed for SADBE content by HPLC on a C18 column with the program SADBE3-50 ul. SADBE elutes in this program at about 24.0 minutes and absorbs at 255 nm, so the area of the 24.0 min peak at 255 nm was used to quantify SADBE.
This program is called SADBE3-50 ul on the HPLC, with 50 ul injection. Column: USP L1 (ODS), 250 mm×4.6 mm, 5 um (C18) • Agilent part number 880995-902 Mobile phase: A: 25 mM KH2PO4 (pH5) (not pH adjusted) • B: Methanol Flow rate: 1.0 mL/min
On Aug. 6, 2018, the first set of patches was placed on 3 pigs. The patches were all held in place on the pigs by an elastic bandage wrapped around the torso of each of the pigs over the patches. The net HPLC area of SADBE lost and presumed in skin is calculated as the area predicted from the 20 ul and 50 ul controls minus the observed HPLC area of SADBE extracted from the test patch that was applied to skin.
SADBE patch testing on pigs 4 and 5 was done on Aug. 13, 2018. In this case, patches on both pigs were covered with TEGADERM™, and on one pig the TEGADERM™ was further covered by an elastic bandage as on August 6.
Summary and Conclusions of Drug Elution from Patches: The percentage of SADBE lost from the patch, and therefore presumed to be transferred into the skin, was calculated for each patch and the results for a given volume (volume of 2% SADBE solution loaded onto the patch) and time point (time patch was on the pig) were averaged, broken down by whether an elastic bandage held the patch in place on the pig or not, was averaged.

[1] = 20 ul on patch, removed at 1 h, elastic bandage (Aug. 6)
[2] = 20 ul on patch, removed at 3 h, elastic bandage (Aug. 6)
[3] = 20 ul on patch, removed at 6 h, elastic bandage (Aug. 6)
[4] = 20 ul on patch, removed at 24 h, elastic bandage (Aug. 6)
[5] = 20 ul, removed at 3 h, TEGADERM, Ace bandage no (Aug. 13)
[6] = 20 ul, removed at 3 h, TEGADERM, Ace bandage yes (Aug. 13)
[7] = 20 ul, removed at 6 h, TEGADERM, Ace bandage no (Aug. 13)
[8] = 20 ul, removed at 6 h, TEGADERM, Ace bandage yes (Aug. 13)
[9] = 50 ul on patch, removed at 1 h, elastic bandage (Aug. 6)
[10] = 50 ul on patch, removed at 3 h, elastic bandage (Aug. 6)
[11] = 50 ul on patch, removed at 6 h, elastic bandage (Aug. 6)
[12] = 50 ul on patch, removed at 24 h, elastic bandage (Aug. 6)
[13] = 50 ul, removed at 3 h, TEGADERM, Ace bandage no (Aug. 13)
[14] = 50 ul, removed at 3 h, TEGADERM, Ace bandage yes (Aug. 13)
[15] = 50 ul, removed at 6 h, TEGADERM, Ace bandage no (Aug. 13)
[16] = 50 ul, removed at 6 h, TEGADERM, Ace bandage yes (Aug. 13)
[17] = 80 ul on patch, removed at 1 h, elastic bandage (Aug. 6)
[18] = 80 ul on patch, removed at 3 h, elastic bandage (Aug. 6)
[19] = 80 ul on patch, removed at 6 h, elastic bandage (Aug. 6)
[20] = 80 ul on patch, removed at 24 h, elastic bandage (Aug. 6)

## CCCCOc1c(OCCCC)c(=O)c1=O [SADBE, squaric acid dibutyl ester]
[1]
  Percent of SADBE presumed in skin: 42.8% and 45.8%
  SADBE area in kimwipe swab: 35 and 39
  SADBE area, 255 nm, 24 min. (extracted from patch): 1941 and 1838
  net HPLC area of SADBE lost and presumed in skin: 1452 and 1555
[2]
  Percent of SADBE presumed in skin: 78.3% and 71.9%
  SADBE area in kimwipe swab: 38 and 44
  SADBE area, 255 nm, 24 min. (extracted from patch): 735 and 954
  net HPLC area of SADBE lost and presumed in skin: 2658 and 2439
[3]
  Percent of SADBE presumed in skin: 92.2% and 92.8%
  SADBE area in kimwipe swab: 40 and 50
  SADBE area, 255 nm, 24 min. (extracted from patch): 265 and 244
  net HPLC area of SADBE lost and presumed in skin: 3128 and 3149
[4]
  Percent of SADBE presumed in skin: 94.6% and 95.5%
  SADBE area in kimwipe swab: 19 and 21
  SADBE area, 255 nm, 24 min. (extracted from patch): 182 and 151
  net HPLC area of SADBE lost and presumed in skin: 3211 and 3242
[5]
  Percent of SADBE presumed in skin: 60.4% and 38.0%
  SADBE area, 255 nm, 24 min. (extracted from patch): 1327 and 2076
  net HPLC area of SADBE lost and presumed in skin: 2021 and 1272
[6]
  Percent of SADBE presumed in skin: 77.5% and 74.9%
  SADBE area, 255 nm, 24 min. (extracted from patch): 753 and 842
  net HPLC area of SADBE lost and presumed in skin: 2595 and 2506
[7]
  Percent of SADBE presumed in skin: 88.4% and 70.5%
  net HPLC area of SADBE lost and presumed in skin: 2960 and 2362
[8]
  Percent of SADBE presumed in skin: 90.2% and 88.4%
  SADBE area, 255 nm, 24 min. (extracted from patch): 328 and 390
  net HPLC area of SADBE lost and presumed in skin: 3020 and 2958
[9]
  Percent of SADBE presumed in skin: 38.1% and 43.0%
  SADBE area in kimwipe swab: 78 and 75
  SADBE area, 255 nm, 24 min. (extracted from patch): 5108 and 4698
  net HPLC area of SADBE lost and presumed in skin: 3141 and 3551
[10]
  Percent of SADBE presumed in skin: 67.2% and 78.9%
  SADBE area in kimwipe swab: 52 and 78
  SADBE area, 255 nm, 24 min. (extracted from patch): 2707 and 1741
  net HPLC area of SADBE lost and presumed in skin: 5542 and 6508
[11]
  Percent of SADBE presumed in skin: 84.9% and 91.9%
  SADBE area in kimwipe swab: 50 and 45
  SADBE area, 255 nm, 24 min. (extracted from patch): 1243 and 666
  net HPLC area of SADBE lost and presumed in skin: 7006 and 7583
[12]
  Percent of SADBE presumed in skin: 97.3% and 98.4%
  SADBE area in kimwipe swab: 20 and 22
  SADBE area, 255 nm, 24 min. (extracted from patch): 224 and 128
  net HPLC area of SADBE lost and presumed in skin: 8025 and 8121
[13]
  Percent of SADBE presumed in skin: 50.8% and 56.9%
  SADBE area, 255 nm, 24 min. (extracted from patch): 4058 and 3549
  net HPLC area of SADBE lost and presumed in skin: 4184 and 4693
[14]
  Percent of SADBE presumed in skin: 57.7% and 32.1%
  SADBE area, 255 nm, 24 min. (extracted from patch): 3484 and 5599
  net HPLC area of SADBE lost and presumed in skin: 4758 and 2643
[15]
  Percent of SADBE presumed in skin: 70.2% and 54.9%
  SADBE area, 255 nm, 24 min. (extracted from patch): 2454 and 3717
  net HPLC area of SADBE lost and presumed in skin: 5788 and 4525
[16]
  Percent of SADBE presumed in skin: 76.4% and 83.3%
  SADBE area, 255 nm, 24 min. (extracted from patch): 1949 and 1376
  net HPLC area of SADBE lost and presumed in skin: 6293 and 6866
[17]
  Percent of SADBE presumed in skin: 24.6% and 30.2%
  SADBE area in kimwipe swab: 105 and 98
  SADBE area, 255 nm, 24 min. (extracted from patch): 9952 and 9208
  net HPLC area of SADBE lost and presumed in skin: 3246 and 3990
[18]
  Percent of SADBE presumed in skin: 27.9% and 49.0%
  SADBE area, 255 nm, 24 min. (extracted from patch): 9517 and 6734
  net HPLC area of SADBE lost and presumed in skin: 3681 and 6464
[19]
  Percent of SADBE presumed in skin: 83.4% and 81.3%
  SADBE area, 255 nm, 24 min. (extracted from patch): 2192 and 2471
  net HPLC area of SADBE lost and presumed in skin: 11006 and 10727
[20]
  Percent of SADBE presumed in skin: 96.1% and 97.9%
  SADBE area in kimwipe swab: 24 and 20
  SADBE area, 255 nm, 24 min. (extracted from patch): 509 and 273
  net HPLC area of SADBE lost and presumed in skin: 12689 and 12925
By 6 hours, all loading volumes tested, with the elastic bandage
  loaded drug transferred into the skin: over 80%
By 24 hours
  loaded drug transferred into the skin: over 95%
With elastic bandage, 20 ul of 2% SADBE, patch worn 1 hour
  Average transfer of SADBE into skin: 44.3% (n = 2)
With elastic bandage, 20 ul of 2% SADBE, patch worn 3 hours
  Average transfer of SADBE into skin: 75.6% (n = 4)
With elastic bandage, 20 ul of 2% SADBE, patch worn 6 hours
  Average transfer of SADBE into skin: 90.9% (n = 4)
With elastic bandage, 20 ul of 2% SADBE, patch worn 24 hours
  Average transfer of SADBE into skin: 95.1% (n = 2)
With elastic bandage, 50 ul of 2% SADBE, patch worn 1 hour
  Average transfer of SADBE into skin: 40.6% (n = 2)
With elastic bandage, 50 ul of 2% SADBE, patch worn 3 hours
  Average transfer of SADBE into skin: 59.0% (n = 4)
With elastic bandage, 50 ul of 2% SADBE, patch worn 6 hours
  Average transfer of SADBE into skin: 84.1% (n = 4)
With elastic bandage, 50 ul of 2% SADBE, patch worn 24 hours
  Average transfer of SADBE into skin: 97.9% (n = 2)
With elastic bandage, 80 ul of 2% SADBE, patch worn 1 hour
  Average transfer of SADBE into skin: 27.4% (n = 2)
With elastic bandage, 80 ul of 2% SADBE, patch worn 3 hours
  Average transfer of SADBE into skin: 38.4% (n = 2)
With elastic bandage, 80 ul of 2% SADBE, patch worn 6 hours
  Average transfer of SADBE into skin: 82.3% (n = 2)
With elastic bandage, 80 ul of 2% SADBE, patch worn 24 hours
  Average transfer of SADBE into skin: 97.0% (n = 2)
Without elastic bandage, 20 ul of 2% SADBE, patch worn 3 hours
  Average transfer of SADBE into skin: 49.2% (n = 2)
Without elastic bandage, 20 ul of 2% SADBE, patch worn 6 hours
  Average transfer of SADBE into skin: 79.5% (n = 2)
Without elastic bandage, 50 ul of 2% SADBE, patch worn 3 hours
  Average transfer of SADBE into skin: 53.9% (n = 2)
Without elastic bandage, 50 ul of 2% SADBE, patch worn 6 hours
  Average transfer of SADBE into skin: 62.6% (n = 2)
